{"source": "paper PMC11501026", "about": "“L-Arginine and asymmetric dimethylarginine (ADMA) transport across the mouse blood-brain and blood-CSF barriers: Evidence of saturable transport at both interfaces and CNS to blood efflux” (PLOS ONE, 2024)", "experiment": "capillary depletion analysis after in situ brain perfusion", "format": "in vivo, mouse", "set-up": "[3H] ADMA and [14C] Sucrose uptake, homogenate / Difference (ADMA minus Sucrose), homogenate / [3H] ADMA and [14C] Sucrose uptake, supernatant / Difference (ADMA minus Sucrose), supernatant / uptake, homogenate / uptake, supernatant: unit not given here", "conditions": "5ml/min; for Kp at 20 min, 62.5 nM / Kp at […] / Kp at 30 min, 62.5 nM / Kp at 10 min, 62.5 nM: male, BALB/c, mouse; for Kp at 30 min, 62.5 nM / Kp at 10 min, 62.5 nM: other: in situ brain perfusion", "procedure": "The microvasculature within a sample of brain tissue can be separated from the brain parenchyma using capillary depletion analysis. Following perfusion, the remaining brain tissue after microdissection of the regions described above (typically 200–300 mg) underwent capillary depletion following a method modified for mouse. […]", "key": {"[1]": {"conditions": "2.5 mins, Balb/c ♂, individual mouse"}, "[2]": {"conditions": "20 mins, Balb/c ♂, individual mouse"}, "[3]": {"conditions": "30 mins, Balb/c ♂, individual mice"}, "[4]": {"conditions": "CONTROL, 10 mins, Balb/c ♂, individual mouse"}, "[5]": {"conditions": "[3H] ADMA + [14C] Sucrose, 30 mins, Balb/c ♂, individual mice"}}, "note": "Where “and” joins values, the source holds several entries; their conditions need not be identical. Equal values may be shown once. Where a name gives a salt, the structure may show the parent alone. Read-outs that look alike come from different tables or passages of the source.", "data": [{"smiles": "CN(C)C(N)=NCCC[C@H](N)C(=O)O", "note": "[ADMA, N^G,N^G-dimethylarginine dihydrochloride]", "values": [{"measurement": "Difference (ADMA minus Sucrose), homogenate", "setting": "[1]", "result": "0.08009 and 0.1215 and 0.06334 and 0.05481 and 0.07702"}, {"measurement": "Difference (ADMA minus Sucrose), pellet", "setting": "[1]", "result": "0.01248 and 0.007546 and 0.01055 and 0.0124"}, {"measurement": "Difference (ADMA minus Sucrose), supernatant", "setting": "[1]", "result": "0.05051 and 0.03514 and 0.04142 and 0.05329"}, {"measurement": "[3H] ADMA and [14C] Sucrose uptake, homogenate", "setting": "[1]", "result": "0.09289 and 0.1482 and 0.07368 and 0.06461 and 0.09146"}, {"measurement": "[3H] ADMA and [14C] Sucrose uptake, pellet", "setting": "[1]", "result": "0.01492 and 0.009191 and 0.01385 and 0.01522"}, {"measurement": "[3H] ADMA and [14C] Sucrose uptake, supernatant", "setting": "[1]", "result": "0.06123 and 0.0402 and 0.05083 and 0.0645"}, {"measurement": "Difference (ADMA minus Sucrose), homogenate", "setting": "[2]", "result": "0.2153 and 0.186 and 0.3039 and 0.2292 and 0.1075"}, {"measurement": "Difference (ADMA minus Sucrose), pellet", "setting": "[2]", "result": "0.01581 and 0.02784 and 0.03159 and 0.04237 and 0.006518"}, {"measurement": "Difference (ADMA minus Sucrose), supernatant", "setting": "[2]", "result": "0.1074 and 0.1722 and 0.2036 and 0.1573 and 0.05863"}, {"measurement": "[3H] ADMA and [14C] Sucrose uptake, homogenate", "setting": "[2]", "result": "0.2383 and 0.2004 and 0.3388 and 0.2498 and 0.142"}, {"measurement": "[3H] ADMA and [14C] Sucrose uptake, pellet", "setting": "[2]", "result": "0.01706 and 0.03 and 0.03434 and 0.04519 and 0.01122"}, {"measurement": "[3H] ADMA and [14C] Sucrose uptake, supernatant", "setting": "[2]", "result": "0.1162 and 0.1882 and 0.2293 and 0.1698 and 0.07807"}, {"measurement": "Difference (ADMA minus Sucrose), homogenate", "setting": "[3]", "result": "0.07039 and 0.3122 and 0.07479 and 0.04539 and 0.1073"}, {"measurement": "Difference (ADMA minus Sucrose), pellet", "setting": "[3]", "result": "0.01163 and 0.01136 and 0.007805 and 0.01411"}, {"measurement": "Difference (ADMA minus Sucrose), supernatant", "setting": "[3]", "result": "0.1199 and 0.1088 and 0.02622 and 0.04075 and 0.06521"}, {"measurement": "Difference (ADMA minus Sucrose), homogenate", "setting": "[4]", "result": "0.2688 and 0.161 and 0.1425 and -0.07309"}, {"measurement": "Difference (ADMA minus Sucrose), pellet", "setting": "[4]", "result": "0.02507 and 0.05085 and 0.009734 and 0.01917 and -0.0657"}, {"measurement": "Difference (ADMA minus Sucrose), supernatant", "setting": "[4]", "result": "0.07602 and 0.1167 and 0.08919 and 0.1193 and 0.02984"}, {"measurement": "[3H] ADMA and [14C] Sucrose uptake, homogenate", "setting": "[4]", "result": "0.1657 and 0.3684 and 0.1901 and 0.1639 and 0.2325"}, {"measurement": "[3H] ADMA and [14C] Sucrose uptake, pellet", "setting": "[4]", "result": "0.02884 and 0.07512 and 0.03345 and 0.03555 and 0.0904"}, {"measurement": "[3H] ADMA and [14C] Sucrose uptake, supernatant", "setting": "[4]", "result": "0.1611 and 0.1028 and 0.139 and 0.1685"}, {"measurement": "uptake, homogenate", "setting": "[5]", "result": "0.08533 and 0.3484 and 0.1186 and 0.07545 and 0.1502"}, {"measurement": "uptake, pellet", "setting": "[5]", "result": "0.01575 and 0.016 and 0.01288 and 0.01992"}, {"measurement": "uptake, supernatant", "setting": "[5]", "result": "0.135 and 0.1332 and 0.05406 and 0.0758 and 0.09832"}, {"measurement": "Kp at 20 min, 62.5 nM", "setting": "capillary depletion pellet (endothelial cell-enriched), Difference (ADMA minus Sucrose), pellet, 20 mins, mean", "result": 0.0248}, {"measurement": "Kp at 20 min, 62.5 nM", "setting": "capillary depletion pellet (endothelial cell-enriched), [3H] ADMA and [14C] Sucrose uptake, pellet, 20 mins, mean", "result": 0.0276}, {"measurement": "Kp at […]", "setting": "capillary depletion supernatant (brain parenchyma), Difference (ADMA minus Sucrose), supernatant, 2.5 mins, individual mouse", "result": 0.0611}, {"measurement": "Kp at […]", "setting": "capillary depletion supernatant (brain parenchyma), Difference (ADMA minus Sucrose), supernatant, 2.5 mins, mean", "result": 0.0483}, {"measurement": "Kp at 20 min, 62.5 nM", "setting": "capillary depletion supernatant (brain parenchyma), Difference (ADMA minus Sucrose), supernatant, 20 mins, mean", "result": 0.14}, {"measurement": "Kp at […]", "setting": "capillary depletion supernatant (brain parenchyma), [3H] ADMA and [14C] Sucrose uptake, supernatant, 2.5 mins, individual mouse", "result": 0.0737}, {"measurement": "Kp at […]", "setting": "capillary depletion supernatant (brain parenchyma), [3H] ADMA and [14C] Sucrose uptake, supernatant, 2.5 mins, mean", "result": 0.0581}, {"measurement": "Kp at 20 min, 62.5 nM", "setting": "capillary depletion supernatant (brain parenchyma), [3H] ADMA and [14C] Sucrose uptake, supernatant, 20 mins, mean", "result": 0.156}, {"measurement": "Kp at 30 min, 62.5 nM", "setting": "capillary depletion supernatant (brain parenchyma), Difference (ADMA minus Sucrose), supernatant, 30 mins, Balb/c ♂, mean", "result": 0.0722}, {"measurement": "Kp at 10 min, 62.5 nM", "setting": "capillary depletion supernatant (brain parenchyma), Difference (ADMA minus Sucrose), supernatant, CONTROL, 10 mins, Balb/c ♂, mean", "result": 0.0862}, {"measurement": "Kp at 30 min, 62.5 nM", "setting": "capillary depletion supernatant (brain parenchyma), [3H] ADMA + [14C] Sucrose, 30 mins, Balb/c ♂, mean, read-out: uptake, supernatant", "result": 0.0993}, {"measurement": "Kp at 10 min, 62.5 nM", "setting": "capillary depletion supernatant (brain parenchyma), [3H] ADMA and [14C] Sucrose uptake, supernatant, CONTROL, 10 mins, Balb/c ♂, individual mouse", "result": 0.119}, {"measurement": "Kp at 10 min, 62.5 nM", "setting": "capillary depletion supernatant (brain parenchyma), [3H] ADMA and [14C] Sucrose uptake, supernatant, CONTROL, 10 mins, Balb/c ♂, mean", "result": 0.138}, {"measurement": "Kp at […]", "setting": "endothelial cell-enriched pellet (capillary depletion), Difference (ADMA minus Sucrose), pellet, 2.5 mins, individual mouse", "result": 0.0108}, {"measurement": "Kp at […]", "setting": "endothelial cell-enriched pellet (capillary depletion), Difference (ADMA minus Sucrose), pellet, 2.5 mins, mean", "result": 0.0108}, {"measurement": "Kp at […]", "setting": "endothelial cell-enriched pellet (capillary depletion), [3H] ADMA and [14C] Sucrose uptake, pellet, 2.5 mins, individual mouse", "result": 0.0124}, {"measurement": "Kp at […]", "setting": "endothelial cell-enriched pellet (capillary depletion), [3H] ADMA and [14C] Sucrose uptake, pellet, 2.5 mins, mean", "result": 0.0131}, {"measurement": "Kp at 30 min, 62.5 nM", "setting": "endothelial cell-enriched pellet (capillary depletion), Difference (ADMA minus Sucrose), pellet, 30 mins, Balb/c ♂, individual mice", "result": 0.0153}, {"measurement": "Kp at 30 min, 62.5 nM", "setting": "endothelial cell-enriched pellet (capillary depletion), Difference (ADMA minus Sucrose), pellet, 30 mins, Balb/c ♂, mean", "result": 0.012}]}]}
